“And” between values parts separate entries of the source, which are not always exact repeats. Identical values can stand only once.
Test system: lactating Holstein cows
Assay: Experiment 1: pregnancies per AI (P/AI) after one vs. two cloprostenol sodium injections in Double-Ovsynch, FTAI
Type: in vivo, cattle
Conditions: for P/AI: quartiles 2, 3 and 4 combined
Method: An experiment was conducted to determine the effectiveness of the exogenous administration of hormones for synchronizing the estrous cycles of lactating dairy cattle and resulting pregnancy rates subsequent to FTAI. A total of 373 lactating Holstein cows (172 primiparous, 201 multiparous) were synchronized with a Double-Ovsynch program comprising a first or presynchronization Ovsynch phase followed by a second Ovsynch phase. All animals were synchronized using a GnRH composition (about 100 mcg of gonadorelin acetate per mL, GONAbreed®, Parnell Technologies Pty Ltd, Alexandria, Australia) and a PGF2α analog composition (about 250 mcg of cloprostenol sodium per mL, estroPLAN®, Parnell Technologies Pty Ltd, Alexandria, Australia). The first Ovsynch phase began at about 51 to about 57 days in milk where the cows received a first 1 mL intramuscular injection of a gonadorelin acetate composition. At about 58 to about 64 days in milk, the cows received a first 2 mL intramuscular injection of a cloprostenol sodium composition. At about 61 to about 67 days in milk, the cows received a second 1 mL intramuscular injection of a gonadorelin acetate composition concluding the first Ovsynch phase. The animals were then synchronized with a second Ovsynch phase comprising an Ovsynch-56 protocol beginning at about 68 to about 74 days in milk where the cows received a third 1 mL intramuscular injection of gonadorelin acetate composition. At about 75 to about 81 days in milk, the animals received a second 2 mL intramuscular injection of a cloprostenol sodium composition. At about 77 to about 83 days in milk (about 56 hours after the second injection of a cloprostenol sodium composition), the animals received a fourth 1 mL intramuscular injection of a gonadorelin acetate composition. And at about 78 to about 84 days in milk (about 16 hours after the fourth injection of the gonadorelin acetate composition), the animals receive AI, concluding the second Ovsynch phase. […] The experimental protocol is shown in the diagram of FIG. 2. Statistical analyses were performed with SAS (SAS Institute, 2006). Variables with a binomial distribution, such as P/AI and percentage of animals with CL regression, were analyzed by logistic regression using the LOGISTIC procedure. One-tailed comparisons were utilized throughout the study for comparison of the effect of an additional cloprostenol sodium injection on CL regression and animals pregnant to the FTAI. Continuous variables were analyzed using ANOVA with logistic regression utilized to compare the relationship between circulating P4 and the binomial traits. Animals with ≦2.0 ng/mL P4 on day of PGF were removed from the analysis (n=29; 13 primiparous, 16 multiparous) due to lack of synchronization to the double Ovsynch protocol. Therefore, all analyses were done with a total of 344 lactating dairy cows (n=159 primiparous; n=185 multiparous). Statistical differences were considered significant for P≦0.05 and as a tendency for P≦0.15.

With `O=C(O)CCC/C=C\CC1C(O)CC(O)C1/C=C/C(O)COc1cccc(Cl)c1` (stereo not shown) [cloprostenol sodium] the “Effect of PGF, relative difference in P/AI (two minus one, divided by one)” value (multiparous) was 18.9% (P = 0.15), the “Pregnant/AI, % (n/n)” value (one injection, Quartile 1, [P4] 2.0-4.8 at first injection) was 31.0% and 31.0 (13/42) % and the “Pregnant/AI, % (n/n)” value (one injection, Quartile 2, [P4] 4.9-6.7) was 40.0% and 40.0 (18/45) %. For the same molecule, the “Pregnant/AI, % (n/n)” value (one injection, Quartile 3, [P4] 6.8-8.7) was 47.7% and 47.7 (21/44) %, the “Pregnant/AI, % (n/n)” value (one injection, Quartile 4, [P4] 8.8-12) was 44.4% and 44.4 (20/45) % and the “percentage of cows pregnant/AI (P/AI)” value (one injection, multiparous) was 37.5% (36/96). The “percentage of cows pregnant/AI (P/AI)” value (one injection, overall) was 40.1% (72/176), the “percentage of cows pregnant/AI (P/AI)” value (one injection, primiparous) was 45.0% (36/80) and the P/AI (one injection) was 44.0%. The “Effect of PGF, relative difference in P/AI (two minus one, divided by one)” value (overall) was 15.2% (P = 0.13), the “Effect of PGF, relative difference in P/AI (two minus one, divided by one)” value (primiparous) was 7.11% (P = 0.35) and the “Pregnant/AI, % (n/n)” value (two injections, Quartile 1, [P4] 2.0-5.4 at first injection) was 31.7% and 31.7 (13/41) %. For the same molecule, the “Pregnant/AI, % (n/n)” value (two injections, Quartile 2, [P4] 5.5-7.0) was 46.7% and 46.7 (21/45) %, the “Pregnant/AI, % (n/n)” value (two injections, Quartile 3, [P4] 7.1-8.6) was 55.8% and 55.8 (24/43) % and the “Pregnant/AI, % (n/n)” value (two injections, Quartile 4, [P4] 8.7-12) was 56.4% and 56.4 (22/39) %. For the same molecule, the “percentage of cows pregnant/AI (P/AI)” value (two injections, multiparous) was 44.6% (41/89), the “percentage of cows pregnant/AI (P/AI)” value (two injections, overall) was 46.2% (80/168) and the “percentage of cows pregnant/AI (P/AI)” value (two injections, primiparous) was 48.2% (39/79). It also gave a P/AI (two injections) of 52.8%.
